Reference: PubChem BioAssay AID1918957 (Molecular Pharmacology Branch, DTP, NCI, 2023)

Tested on: NCI-H1876 complex spheroid viability
Assay: Anticancer human tumor NCI-H1876 cell line growth inhibition [LSD1];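 also: spheroids exposed to compounds for one week before readout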;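 as to viability, T/C: 100% = DMSO vehicle-treated spheroids so lower means fewer viable cells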
Details: for IC50: curve of first compound; for viability, T/C: stronger effect = lower value
In short: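 Drug combinations with the LSD1 inhibitor iadademstat tested on tumor cells co-cultured as spheroids with endothelial cells and mesenchymal stem cells. Concentrations descended in half-log increments from clinical Cmax or 10 microM.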

[1] = second compound 0.1 µM, first compound 0.00949 µM
[2] = second compound 0.1 µM, first compound 0.03 µM
[3] = second compound 0.1 µM, first compound 0.0949 µM
[4] = second compound 0.1 µM, first compound 0.3 µM
[5] = second compound 0.1 µM, first compound 0.949 µM
[6] = second compound 0.1 µM, first compound 3 µM
[7] = second compound 0.316 µM, first compound 0.00949 µM
[8] = second compound 0.316 µM, first compound 0.03 µM
[9] = second compound 0.316 µM, first compound 0.0949 µM
[10] = second compound 0.316 µM, first compound 0.3 µM
[11] = second compound 0.316 µM, first compound 0.949 µM
[12] = second compound 0.316 µM, first compound 3 µM
[13] = second compound 1 µM, first compound 0.00949 µM
[14] = second compound 1 µM, first compound 0.03 µM
[15] = second compound 1 µM, first compound 0.0949 µM
[16] = second compound 1 µM, first compound 0.3 µM
[17] = second compound 1 µM, first compound 0.949 µM
[18] = second compound 1 µM, first compound 3 µM
[19] = second compound 3.16 µM, first compound 0.00949 µM
[20] = second compound 3.16 µM, first compound 0.03 µM
[21] = second compound 3.16 µM, first compound 0.0949 µM
[22] = second compound 3.16 µM, first compound 0.3 µM
[23] = second compound 3.16 µM, first compound 0.949 µM
[24] = second compound 3.16 µM, first compound 3 µM
[25] = second compound 10 µM, first compound 0.00949 µM
[26] = second compound 10 µM, first compound 0.03 µM
[27] = second compound 10 µM, first compound 0.0949 µM
[28] = second compound 10 µM, first compound 0.3 µM
[29] = second compound 10 µM, first compound 0.949 µM
[30] = second compound 10 µM, first compound 3 µM

SMILES | IC50 (second compound 0.1 µM) [nM] | IC50 (second compound 0.316 µM) [nM] | IC50 (second compound 1 µM) [nM] | IC50 (second compound 3.16 µM) [nM] | IC50 (second compound 10 µM) [nM] | viability, T/C [1] [%] | viability, T/C [2] [%] | viability, T/C [3] [%] | viability, T/C [4] [%] | viability, T/C [5] [%] | viability, T/C [6] [%] | viability, T/C [7] [%] | viability, T/C [8] [%] | viability, T/C [9] [%] | viability, T/C [10] [%] | viability, T/C [11] [%] | viability, T/C [12] [%] | viability, T/C [13] [%] | viability, T/C [14] [%] | viability, T/C [15] [%] | further results
NS(=O)(=O)OCC1CC(n2ccc3c(NC4CCc5ccccc54)ncnc32)CC1O (stereo not given) + NC1CCC(NC2CC2c2ccccc2)CC1 | 101 | 78 | 71.8 | 68.9 | 83 | 78.2 | 60.1 | 56.1 | 36.6 | 36.1 | 31.7 | 75.3 | 60.5 | 47.2 | 39.4 | 37.9 | 31.4 | 83.5 | 62.3 | 46.8 | viability, T/C [16]: 35.1%; viability, T/C [17]: 34.2%; viability, T/C [18]: 30.1%; viability, T/C [19]: 70.9%; viability, T/C [20]: 57.9%; viability, T/C [21]: 48.4%; viability, T/C [22]: 35.9%; viability, T/C [23]: 33.6%; viability, T/C [24]: 28.8%; viability, T/C [25]: 77.3%; viability, T/C [26]: 63%; viability, T/C [27]: 47.6%; viability, T/C [28]: 37%; viability, T/C [29]: 32.3%; viability, T/C [30]: 24.4%
Nc1ccccc1NC(=O)c1ccc(CNC(=O)OCc2cccnc2)cc1 + NC1CCC(NC2CC2c2ccccc2)CC1 | 186 | 177 | 185 | 170 | 179 | 98.5 | 109 | 90.6 | 21.2 | 4.45 | 1.28 | 113 | 108 | 78.3 | 26.3 | 3.15 | 1.03 | 114 | 115 | 86.2 | viability, T/C [16]: 23.3%; viability, T/C [17]: 11.6%; viability, T/C [18]: 1.66%; viability, T/C [19]: 111%; viability, T/C [20]: 104%; viability, T/C [21]: 80%; viability, T/C [22]: 21.2%; viability, T/C [23]: 2.36%; viability, T/C [24]: 0.71%; viability, T/C [25]: 102%; viability, T/C [26]: 102%; viability, T/C [27]: 86.5%; viability, T/C [28]: 20.2%; viability, T/C [29]: 10.6%; viability, T/C [30]: 1.74%
O=C(C=Cc1cccc(S(=O)(=O)Nc2ccccc2)c1)NO + NC1CCC(NC2CC2c2ccccc2)CC1 | 196 | 193 | 179 | 193 | 158 | 109 | 103 | 89.3 | 27 | 12.8 | 10.9 | 103 | 101 | 87 | 27.1 | 13.9 | 19.6 | 103 | 105 | 77.3 | viability, T/C [16]: 27.3%; viability, T/C [17]: 6.13%; viability, T/C [18]: 0.61%; viability, T/C [19]: 101%; viability, T/C [20]: 106%; viability, T/C [21]: 82.2%; viability, T/C [22]: 29.8%; viability, T/C [23]: 4.78%; viability, T/C [24]: 0.3%; viability, T/C [25]: 105%; viability, T/C [26]: 99.3%; viability, T/C [27]: 69.8%; viability, T/C [28]: 26.6%; viability, T/C [29]: 3.06%; viability, T/C [30]: 19.4%
